From a melting point compilation (Tetko et al.; mined from patent text by program, amines drawn as free bases though some values may be those of a salt)

First: O=C1c2ccccc2C(O)(c2ccccc2)N1C1CCN(CCC(c2ccccc2)c2ccccc2)CC1 (centres undefined)
Second: O=c1[nH]c(=O)n(CCCCCN2CCC(OC(c3ccccc3)c3ccccc3)CC2)c2ccccc12
The melting point of the first is lower: 150 to 153 °C for the first, 173 to 174 °C for the second.

Compared with `COc1ccc(/C=C/C(=O)c2ccccc2C(=O)O)cc1-c1cccs1`, `CCCCOc1cc(C(=O)O)cc(N)c1C(=O)c1ccccc1` is higher in melting point: 79 to 81 °C for the first, 202 to 204 °C for the second.

First: CCOC(=O)c1nc(O)sc1C(C)=O
Second: CCOC(=O)c1cn2c3c(c(F)c(Cl)cc3c1=O)OCC2C (centres undefined)
The melting point of the first is lower: 105 to 108 °C for the first, 263 to 264 °C for the second.

First: CCCCCCCNC(=O)N(C)c1ccc(C)c(-c2ccc(C=CC(=O)O)cc2)c1
Second: CCCC=CCC(CC(=O)Nc1cc(Cc2n[nH]c(=O)c3ccccc23)ccc1F)C(=O)O (centres undefined)
The melting point of the first is lower: 159 °C for the first, 179 to 181 °C for the second.

First: CCCC(=O)Nc1c2c(nc3ccccc13)CCCC2
Second: COc1ccc2c(c1)c1c(n2Cc2ccccc2)CCCC1C(=O)O (centres undefined)
The melting point of the first is higher: 202 to 204 °C for the first, 179 to 183 °C for the second.

Compared with `CCc1c(C(=O)OC)c(C(=O)OC)c2n1-c1ccccc1C2`, `COc1ccc(C(=O)N2c3ccccc3C(Nc3ccc(Br)cc3)CC2C)cc1OC` (centres undefined) is higher in melting point: 86 to 88 °C for the first, 173 to 175 °C for the second.

Compared with `Cc1ccccc1OCC(O)CNCCCOc1ccccc1` (centres undefined), `O=C(CP(=O)(O)CCCCc1ccccc1)OCc1ccccc1` is lower in melting point: 73 to 74 °C for the first, 64 to 67 °C for the second.

Compared with `O=C1CC(CI)C(=O)N1c1ccc(F)cc1` (centres undefined), `CC(=O)c1c(-c2ccc(F)cc2)nn(CC2CC2)c(=O)c1Nc1cccc2ncccc12` is higher in melting point: 156 °C for the first, 169 to 170 °C for the second.

First: CNCC(=O)N1N=C(c2ccc(N)cc2)c2cc3c(cc2CC1C)OCO3 (centres undefined)
Second: CCN1C(=O)CN=C(c2ccccc2F)c2cc(C(C)N)ccc21 (centres undefined)
The melting point of the first is higher: 198 to 200 °C for the first, 53 to 55 °C for the second.

Compared with `O=S1(=O)c2ccccc2-c2ccccc2N1CCCN1CCN(c2ccc(F)cc2)CC1`, `O=C(O)Cc1ccc(CN2CCN(C(c3ccccc3)c3ccccc3)CC2)cc1` is higher in melting point: 163 °C for the first, 183 to 185 °C for the second.

First: O=C(O)c1cc(Br)sc1Cl
Second: CCN(C(C)=O)c1cccc(-c2ccc(Cl)nn2)c1
The melting point of the first is higher: 159 to 160 °C for the first, 116 to 119 °C for the second.

First: COc1ccc(Br)c(COc2ccc3ccc(OC)cc3c2)c1
Second: CCOc1ccc2c(c1)C(=O)N(c1ccc3sccc3c1)C2
The melting point of the first is higher: 156 to 157 °C for the first, 127 to 129 °C for the second.

First: O=C(O)Cc1ccc(Oc2ccc(I)cc2)cc1
Second: O=C(NNS(=O)(=O)c1ccccc1)c1ccc(I)cc1
The melting point of the first is lower: 148 to 150 °C for the first, 193 to 195 °C for the second.

First: Cc1cc(C)nc(Oc2ccnc3cc(Cl)ccc23)n1
Second: Cc1cc(C)n(-c2nc(Nc3ccc4ccccc4c3)c3ccccc3n2)n1
The melting point of the first is lower: 104 to 105 °C for the first, 213 to 216 °C for the second.

Compared with `CN(C)c1ccc(NC(=O)Cn2c(-c3ccc(Br)cc3)nc3cccnc32)cc1`, `O=C(Cc1ccccc1)Nc1ncc(-c2ccc(O)cc2)nc1Cc1ccccc1` is higher in melting point: 248 to 250 °C for the first, 259 to 261 °C for the second.

First: COc1ccc2c3c(c(=O)oc2c1OC)CN(Cc1ccccc1)CC3
Second: Cc1cccc(S(=O)(=O)N2CCn3c(c(C(N)=O)c(Cl)c3-c3ccccc3)C2)c1
The melting point of the first is lower: 138 to 140 °C for the first, 165 to 167 °C for the second.

Compared with `C#Cc1ccc(Nc2c(C(=O)c3nccs3)ccc(F)c2F)c(F)c1`, `CCCNc1cccc(-c2ccnc3c(C(=O)c4cccs4)cnn23)c1` is lower in melting point: 161 °C for the first, 128 to 130 °C for the second.

First: O=C1[C@H]2CCCC[C@H]2C(=O)N1Cc1ccncc1
Second: O=C(C1CCCCC1)N1CCN2C(=O)c3ccccc3C2C1=O (centres undefined)
The melting point of the first is lower: 91 to 92 °C for the first, 167 to 172 °C for the second.

First: CC(C)=CCCC(C)C1CCC2C3CC=C4CC(O)CC(O)C4(C)C3CCC12C (centres undefined)
Second: CC1(C)[C@H]2CC=C(CCOCC(=O)O)[C@@H]1C2
The melting point of the first is higher: 137 to 139 °C for the first, 78 to 80 °C for the second.

Compared with `CCOC(=O)CCC(CC(=O)c1ccc(NCc2ccc3ccc4nc(C)[nH]c(=O)c4c3c2)cc1)C(=O)OCC` (racemic), `CCOC(=O)c1ccc(NCCCc2ccc(Cl)cc2)cc1` is lower in melting point: 189 to 190 °C for the first, 122 to 124 °C for the second.

First: CCOCc1nc2c(N)nc3cc(-c4ccccc4)ccc3c2n1CC(C)(C)NC(=O)NC1CCCCC1
Second: COCCc1nc2cnc3cc(OCc4ccccc4)ccc3c2n1CC(C)(C)O
The melting point of the first is lower: 152 to 156 °C for the first, 170 to 172 °C for the second.

First: O=[N+]([O-])c1ccc(OC2SCC(O)C(O)C2O)cc1 (centres undefined)
Second: CCOc1ccc(C=NO)cc1
The melting point of the first is higher: 130 to 132 °C for the first, 81 to 86 °C for the second.

First: CC(C)(C)c1ccc2c(c1)OC(C(F)(F)F)C(C(=O)O)=C2 (centres undefined)
Second: CON=C(C)c1ccc(C(=O)Nc2ccc(C(C)(C)C)cc2)cc1
The melting point of the first is higher: 166 to 167 °C for the first, 154 to 155 °C for the second.

First: CC(=O)N1CCc2cc(CC(C)N)cc(C#N)c21 (centres undefined)
Second: COc1ccc(C2(C#N)CCC(=NO)CC2)cc1OCC1CC1 (centres undefined)
The melting point of the first is higher: 94 to 96 °C for the first, 75 to 77 °C for the second.

Compared with `N#Cc1cnc2sc(-c3ccc(C=O)cc3)cc2c1Nc1cccc2[nH]ccc12`, `O=C1N(Cc2ccccn2)c2cccc(-c3ccoc3)c2C12COc1cc3c(cc12)CCO3` (centres undefined) is lower in melting point: > 245 °C for the first, 195 to 197 °C for the second.

First: O=c1c2ccccc2nc(CCl)n1-c1ccccc1Cl
Second: CC(=O)c1ccc(-n2c(-c3sc(Nc4ccccc4)nc3C)nc3ccccc3c2=O)cc1
The melting point of the first is lower: 195 to 196 °C for the first, 271 to 273 °C for the second.

First: C=C(Cc1ccccc1)C(=O)N[C@@H](CC(C)C)C(=O)O
Second: Cc1sc2c(c1C(=O)c1ccccc1)CCC2C(=O)O (centres undefined)
The melting point of the first is lower: 56 to 60 °C for the first, 145 to 147 °C for the second.

First: N#Cc1ncc(Cl)nc1C#N
Second: N#CCc1cccc2c(C3CCCC3)nccc12
The melting point of the first is lower: 89 to 90 °C for the first, 99.4 to 100 °C for the second.

First: Clc1ccc(C(Br)Br)c(C(Br)Br)c1
Second: CC(C)C(O)c1cccc(S(N)(=O)=O)c1 (centres undefined)
The melting point of the first is lower: 108 to 111 °C for the first, 152 to 153 °C for the second.

First: O=C(NC=CC1CC2C=CC1C2)n1cc(F)c(=O)[nH]c1=O (centres undefined)
Second: O=C1O[C@@H](CNC(=S)C(F)F)CN1c1ccc(C2CCS(=O)CC2)c(F)c1 (some centres undefined)
The melting point of the first is lower: 130 to 132 °C for the first, 192 to 194 °C for the second.

First: O=C(O)COc1cc(F)c(N2CCOCC2)cc1C(=O)NCc1ccc(Br)cc1F
Second: CC(=O)NC[C@H]1CN(c2ccc(N3CCC(O)(CN4CCOCC4)CC3)c(F)c2)C(=O)O1
The melting point of the first is lower: 180 °C for the first, 184 to 186 °C for the second.

Compared with `COCCOCc1c(CN(C)CC(O)c2ccccn2)sc2c(=O)c(C(=O)NCc3ccc(Cl)cc3)cn(C)c12` (centres undefined), `CC(C)c1ccc2c(c1)c(Sc1ccccc1)c(CCC(C)(C)C(=O)O)n2Cc1ccc(Cl)cc1` is higher in melting point: 150 to 152 °C for the first, 164 to 166 °C for the second.

First: CCCc1ncc(CN2C(=O)c3ccccc3C2=O)s1
Second: O=C1OC(=O)c2c3ccccc3c(Cl)c3cccc1c23
The melting point of the first is lower: 72 °C for the first, 269 to 271 °C for the second.

First: CC(C)C1(C)CC(=O)CC(C)(C)N1 (centres undefined)
Second: COC(=O)C(=O)NC1CC(C)(C)N(OC2CCCCC2)C(C)(C)C1
The melting point of the first is lower: 47 to 53 °C for the first, 124 to 126 °C for the second.

First: CCOC(=O)C1CN(c2cc3ccccc3c(=O)[nH]2)CCN1C (centres undefined)
Second: COc1cc(N)c(Cl)cc1C(=O)N[C@H]1CCN(CCCNc2nc3ccccc3s2)C[C@H]1OC (relative stereo)
The melting point of the first is lower: 105 to 109 °C for the first, 162 °C for the second.

First: COC(=O)c1ccc(Nc2ccc(C#N)cc2NC(C)=O)cc1
Second: COc1ccc2oc(C(=O)Nc3ccc(-c4ccc(S(=O)(=O)NC(C(=O)O)C(C)C)cc4)cc3)cc2c1 (centres undefined)
The melting point of the first is lower: 231 to 232 °C for the first, 257 to 259 °C for the second.

First: CN(C)C1CCN(C(=O)N2CCC(c3[nH]nc4c3C(=O)c3c(NC(=O)NN5CCOCC5)cccc3-4)CC2)CC1
Second: CN(C)C(=Nc1ccccc1N1CCOCC1)N1CCOCC1
The melting point of the first is higher: 172 to 174 °C for the first, 126 to 128 °C for the second.

First: CC1(C)[C@@H](C(=O)O)[C@@H]1C(=O)O (relative stereo)
Second: CCCCCCCC(=O)CCC(C)=O
The melting point of the first is higher: 217 °C for the first, 40 to 41 °C for the second.

First: CC(C)(O)c1ccc2c(c1)SC(c1ccccc1)C(c1ccc3c(c1)NC(=O)CO3)=C2 (centres undefined)
Second: O=C1Cc2cccc(Sc3ccccc3)c2N1
The melting point of the first is higher: 241 to 245 °C for the first, 160 to 161 °C for the second.

First: C[C@]1(N2C(=O)c3cccc(Nc4ccc5c(c4)CCC5)c3C2=O)CCC(=O)NC1=O
Second: CC1CCN(C2C3=CC(OC3=O)C3C(CC4(C)OC4C2OC(=O)c2ccccc2)OC(=O)C3C)CC1 (centres undefined)
The melting point of the first is lower: 200 to 202 °C for the first, 234 °C for the second.

Compared with `CCOC(=O)c1ccc(-c2ccc(OCC(O)CO)c(-c3ccc4c(c3)C(C)(C)CCC4(C)C)c2)cc1` (centres undefined), `C=CCOc1cc2c(cc1C)OC1(CC2(C)C)CC(C)(C)c2cc(OCC=C)c(C)cc2O1` is higher in melting point: 56 °C for the first, 98 to 100 °C for the second.

First: O=S(=O)(NCC(O)(Cn1cncn1)c1ccc(F)cc1F)c1ccc(F)cc1 (centres undefined)
Second: NS(=O)(=O)c1ccc(-n2nc(NC(=O)Nc3cccc(C(F)(F)F)c3)cc2-c2ccccc2)cc1
The melting point of the first is lower: 140 to 146 °C for the first, 195 to 197 °C for the second.

Compared with `COc1ccccc1C(O)(c1ccc(C(C)C)cc1)C(C)C` (centres undefined), `O=C(N[C@H](Cc1ccc(C(F)(F)F)cc1)[C@@H](O)c1ccc(F)cc1)C1CCCCC1` (racemic) is higher in melting point: 85 to 86 °C for the first, 203 to 204 °C for the second.

First: CC1COc2c(N3CCC(NC(=O)OC(C)(C)C)C3)c(F)cc3c(=O)n(N)c(=O)n1c23 (centres undefined)
Second: CN1CCC(c2c[nH]c3ccc(O[Si](C)(C)C(C)(C)C)cc23)CC1
The melting point of the first is lower: 114 to 116 °C for the first, 191 to 195 °C for the second.

Compared with `CC(C)NC(=O)C1c2cc(NC(=O)c3cc(C(F)(F)F)nn3-c3ncccc3Cl)c(Cl)cc2CC1F` (centres undefined), `C[C@H](NC(=O)Cc1cc(F)cc(F)c1)C(=O)N[C@@H]1C(=O)Nc2ccccc2S[C@@H]1c1cc(Br)cs1` is higher in melting point: 98 to 99 °C for the first, 145 to 155 °C for the second.

Compared with `Cc1nc(N2CCN(Cc3ccc(F)cc3)C2=O)sc1-c1cc[nH]n1`, `CS(=O)(=O)C(=C1CN(C(c2ccccc2)c2ccccc2)C1)c1cccc(F)c1F` is lower in melting point: 239 to 242 °C for the first, 208 °C for the second.

First: CSC(=C[N+](=O)[O-])N1CCCCC1
Second: CSCc1nn(CCC#N)c(O)c1C
The melting point of the first is lower: 65 to 67 °C for the first, 98 °C for the second.

First: CCCCCCCCCCCCCCCCOCC(CN)COC (centres undefined)
Second: CCCCCCOc1ccc2c(c1CCC)OC(CCC(=O)O)(CCC(=O)O)CC2=O
The melting point of the first is lower: 49 to 51 °C for the first, 164 to 165 °C for the second.

Compared with `Cc1ccc(C2NCCS2)cc1` (centres undefined), `CC(=O)C1=C(O)C(=C(C)Nc2cccc(NC(=O)C(O)CO)c2)C(=O)OC1=O` (centres undefined) is higher in melting point: 92 to 93 °C for the first, 218 °C for the second.

In the case of `CC(C)[C@H](NC(=O)N(C)Cc1csc(C2CCCC2)n1)C(=O)N[C@@H](Cc1ccccc1)C[C@H](O)[C@H](Cc1ccccc1)NC(=O)OCc1cncs1`, the melting point is reported as 70 to 71 °C.
